Drawing on ChEMBL document CHEMBL4007400, “Role of Reactive Oxygen Species (ROS) in Therapeutics and Drug Resistance in Cancer and Bacteria” (J Med Chem, 2017), this text covers Ki for 1 compound.

This experiment has as its target T1, 4,4'-diapophytoene synthase (Staphylococcus aureus, UniProt A9JQL9).
T1 sequence (A9JQL9 whole entry): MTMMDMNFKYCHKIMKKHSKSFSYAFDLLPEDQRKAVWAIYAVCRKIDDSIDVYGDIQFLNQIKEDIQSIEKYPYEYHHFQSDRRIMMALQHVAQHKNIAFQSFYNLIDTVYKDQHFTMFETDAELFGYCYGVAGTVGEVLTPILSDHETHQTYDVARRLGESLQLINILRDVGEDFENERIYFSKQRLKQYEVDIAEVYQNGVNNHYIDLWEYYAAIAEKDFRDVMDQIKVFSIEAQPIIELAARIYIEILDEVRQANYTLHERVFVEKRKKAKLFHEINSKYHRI
In words: Inhibition of Staphylococcus aureus ATCC 27659 histidine-tagged full length CrtM expressed in Escherichia coli BL21(DE3) cells assessed as decrease in staphyloxanthin formation after 30 mins by continous spectrophotometric method.

For the compound `O=P(O)(O)C(CCCc1cccc(Oc2ccccc2)c1)S(=O)(=O)O` (stereo unspecified), the Ki – broadly, the equilibrium dissociation constant of an inhibitor or competing ligand from its target – is 1.5 nM.
